We go through 1 compound from US6200962A, “Thionophosphate derivatives, process for their preparation and pharmaceutical compositions containing them” (priority 1994, dated 2001).

The nature of series [1]: Toxicity study, i.p. injection. The series is classed as in vivo, Sabra mice. The note with it: mouse, in vivo, ip, single, Sabra mice. As for the experimental part:
(§1) The toxicity of compound B was tested by injecting 75 mg/kg, 150 mg/kg, 300 mg/kg, 500 mg/kg, 700 mg/kg and 1000 mg/kg i.p. to groups of eight Sabra mice. In addition, a repetitive i.p. injection of 75 mg/kg/day over a period of two weeks was conducted on eight mice. The mice were monitored for mortality and for chances in their weight compared to a saline injected control group.
(§2) The toxicity of compound B was tested by injecting 75 mg/kg, 150 mg/kg, 300 mg/kg, 500 mg/kg, 700 mg/kg and 1000 mg/kg i.p. to groups of eight Sabra mice.

Another series has as its system Sabra mice. The series can be described thus: Toxicity study, i.p. injection. The series is classed as in vivo. Here is the method:
as §1, §2

A short description of series [2]: Hydroxyl radical chemiluminescence method (H2O2, NTA-Fe2+, HRP). The note with it: increasing concentrations. Here is the method:
Chemiluminescence (CL) was measured in mixtures of H2 O2, NTA-Fe^2+ and HRP (Horseradish peroxidase) systems in a LUMAC/3M BIOCONTER M2010 connected to a linear recorder as described [Ginsburg, I. et al. (1993) Inflammation 17:227-243]. The scavenging of hydroxyl radicals was done by various concentrations of AMTP (compound C dissolved in reaction buffer).
where A is the absorbance in the presence of a scavenger S (AMTPs) at a concentration [S] and A0 is the absorbance in the absence of a scavenger KDR =3.1*10^9 (reaction constant between deoxyribose and OH. radical) [Ebert, M., et al. (1965) Pulse Radiolysis, Academic Press, London] and [DR]=18 mM. […] Considering the fast reaction between H2 O2 and Fe^2+ --NTA and the slow reaction rate between AMTP and hydrogen peroxide as monitored in the ^31 P experiments (FIG. 5), the light decay may be exclusively attributed to hydroxyl radical scavenging.

Series [3] in a line: Lipid hydroperoxides in partially oxidized SUV liposomes. The note with it: 5 mM, after 24 h. Here is the method:
SUV liposomes were prepared from egg lecitin at 10% lipid concentration in a 50 ml HEPES buffer pH=6.9 according to already published procedures [Lichtenberg, D. and Barenholz. Y. (1988) Methods of Biochemical Analysis 33:337-462].
Lipid hydroperoxides were monitored by a modified micromolar sensitive spectroscopic method [Siddiqi, A. M. and Tappel, A. L. (1955) Chemist Analyst 44:52]. 50λ of lipids (liposomes or emulsion) were dissolved in 1 ml ethanol. 50λ of 50% potassium iodide solution were then added and the mixture was incubated for half an hour in the dark. The developed color was read in a spectrophotometer at 400 nm.
SUV Liposomes (12.5 mM) with certain degrees of oxidation were incubated with 5 mM AMTP molecules for period of 24 h. Peroxidation number (PN) was measured with potassium iodide in ethanol. AMTPs were able to decompose lipid hvdroperoxide and to reduce the peroxidation number (PN).

In general, LD50 refers to the dose expected to kill half of the subjects tested. Low values mean a more toxic substance, high ones a less toxic substance. `CCOP(=S)(NCCO)OCC` [Compound B, 2-hydroxyamido diethyithionophosphate] displayed an LD50 at 720 h in series [1] of around 700 mg/kg. In addition, the mortality result in the series with Sabra mice (i.p., doses up to 500 mg/kg) is on record as “No mortality was observed”. In addition, the “changes in average weight” value with Sabra mice (i.p., up to 500 mg/kg, monitoring of 30 days, vs saline control) is given as “nor were there any significant changes”. Also, the “mortality or weight differentiation” value in the series with Sabra mice (repetitive i.p. 75 mg/kg/day, two weeks) was “did not lead to any mortality or weight differentiation”. The “decay of light (hydroxyl radical scavenging)” value in series [2] is recorded as “Dose dependent decay of light”. In addition, the “reduction of PN, comparative” value in series [3] is recorded as “more effective in reducing PN”.
